These results are taken from a melting point compilation (Tetko et al.; mined from patent text by program, amines drawn as free bases though some values may be those of a salt).

Bounds are passed on as bounds.

What is called melting point is the temperature, or range, at which the solid turns liquid. As to `O=C(O)c1cccc(CN2CCC(N3C(=O)Nc4ccccc4C3c3ccccc3)CC2)c1` (stereo not drawn), the melting point is more than 250 °C.

Molecule `CC(C)(Oc1ccc(OC(CCC(F)(F)F)c2cccc3c2cnn3-c2ccc(C(F)(F)F)cc2)cc1)C(=O)O` (racemic) came in with a melting point of 175 to 180 °C.

`CCOC(=O)c1cn(C2CCCCC2)c2cc(C#Cc3cc(Cc4cnc(N)nc4N)cc(OC)c3OC)ccc2c1=O` showed a melting point of 228 to 230 °C.

On to `O=c1oc2ccccc2c(O)c1C1CC(c2ccc(Oc3ccc(-c4ccccc4)cc3)cc2)Cc2ccccc21` (stereo not drawn), for which the melting point fell in the range of 124 to 127 °C.

Consider `CCCCNc1cc(CN(Cc2ccccc2)C(=O)OCC)cc(S(N)(=O)=O)c1Oc1ccccc1`, for which the melting point lay within 82 to 83 °C.

`CC(=O)Oc1c(C(C)(C)C)cc(C#N)c(C)c1C(=O)Nc1ccc(C#N)cc1C(F)(F)F` yielded a melting point of 171 to 172 °C.

In the case of `O=C(CCC(=O)N1CCC(c2ccc(Cl)cc2)CC1)c1ccc2c(c1)CCN(C(=O)C(F)(F)F)CC2`, the melting point fell in the range of 131 to 132 °C.

Turning to `Cc1cc(-c2cccc(NC(=O)C3CCC3)c2)n2ncc(C(=O)c3cccs3)c2n1`, the melting point was 121 to 123 °C.

As for `COc1cc(CCI)cc2c1OCO2`, the melting point fell in the range of 78 to 80 °C.

`CCCc1c(OCCCSc2ccc(C(=O)NCC(=O)OCC)cc2)ccc(C(C)=O)c1O` registered a melting point of 115 to 116 °C.

`O=C(N[C@H]1CCN(C(=O)c2cc(C(F)(F)F)cc(C(F)(F)F)c2)[C@H](Cc2ccc(Cl)cc2)C1)c1cc(=O)c2ccccc2o1` showed a melting point of 169 to 170 °C.

For the molecule `CCCNC(=O)c1nc(C)ccc1C(=O)Nc1c(C#N)ccc(Cl)c1C`, the melting point lay within 175 to 176 °C.

As to `COC(=O)COc1ccc(CCCOS(C)(=O)=O)cc1`, the melting point fell in the range of 49 to 51 °C.

For the molecule `Cc1cc([N+](=O)[O-])c(C(=O)O)cc1F`, the melting point fell in the range of 163 to 165 °C.

In turn, `CCOC(=O)Cn1c2c([nH]c(=O)c1=O)CCC1=C2C=C(n2ccc(C=O)c2)CC1` came in with a melting point of more than 250 °C.

`Oc1ccc2c(c1)CCC(CCN1CCCCC1)C2` (stereo not drawn): the melting point lay in the range of 154 to 157 °C.

In the case of `Cc1ccc(C(=C/C=C/C=O)c2ccc(C)cc2)cc1`, the melting point was 92 to 93 °C.

`COc1cc(OC)nc(OC(C(=O)O)C(C)(Oc2ccccc2)c2ccccc2)n1` (stereo not drawn) showed a melting point of 50 to 55 °C.

In turn, `COC(=O)On1c(C(=O)OC)cc2c(C)ccc(C)c21` yielded a melting point of 75 to 80 °C.

`CC(C)(C)OC(=O)NC(Cc1ccc([N+](=O)[O-])cc1)C(=O)O` (stereo not drawn) showed a melting point of 105 to 107 °C.

In turn, `CN(C)C(=O)Nc1cc(O)cc(O)c1` showed a melting point of 230 °C.

Regarding `COc1ccc(F)cc1C(C)(C)CC(O)(CN1CC(=O)N(C)c2ccccc21)C(F)(F)F` (stereo not drawn), the melting point was in the range of 132 to 134 °C.

The molecule `CCOC(=O)c1sc(-c2ccc(C#N)cc2)nc1CO` had a melting point of more than 250 °C.

In turn, `Nc1nc2c(s1)CCN(CC=Cc1cccc(Cl)c1)CC2` showed a melting point of 132 to 136 °C.

With `O=C(O)Cc1c(Sc2ccccc2)c2cc(F)ccc2n1Cc1ccc(Cl)cc1`, the melting point was determined as 168 °C.

With `CCOCn1c(C(=O)c2cc(C)cc(C)c2)c(C(C)C)c(=O)[nH]c1=O`, the melting point lay within 120 to 122 °C.

`CC(C)OC(=O)N1CCC(c2nc3cc(-c4ccc(C(N)=O)cc4Cl)ccc3o2)CC1` registered a melting point of 178 to 182 °C.

In the case of `Cc1cc(C)c(-c2nc(-c3ccc(O)cc3O)nc(-c3ccc(O)cc3O)n2)c(C)c1`, the melting point was in the range of 230 to 234 °C.

The molecule `OC1(c2ccccn2)CCNCC1` gave a melting point of 128 to 132 °C.

`O=C(Nc1ccc(C(=O)N2CCO[C@H]3CCCC[C@@H]32)cc1)c1ccc(Cl)cc1Cl` (relative stereo) gave a melting point of 227 to 230 °C.

With `O=C(COc1cc(-c2cccs2)nc2ccccc12)N1CCOCC1`, the melting point came to 198 °C.

Molecule `COc1ccc(C(=O)c2ccc(Br)s2)cc1` returned a melting point of 97 to 99 °C.

The molecule `CC1(c2ccccc2)CNC(=O)O1` (stereo not drawn) gave a melting point of 144 to 145 °C.
